Key:
[1] = molecular target: T1, Integrin alpha-4/beta-1 (Homo sapiens, UniProt P05556+P13612); test: Inhibitory binding concentration determined against VCAM/VLA-4 in ELISA; assay type: protein-complex assay
[2] = molecular target: T1, Integrin alpha-4/beta-1; test: Inhibition of Very late antigen 4/vascular cell adhesion molecule 1 interaction in ELISA; assay type: protein-complex assay
[3] = molecular target: T1, Integrin alpha-4/beta-1; test: Inhibitory binding concentration determined against VCAM/VLA-4 in Ramos; assay type: protein-complex assay
[4] = molecular target: T1, Integrin alpha-4/beta-1; test: Inhibition of Very late antigen 4 (VLA-4) of Ramos cell adhesion to vascular cell adhesion molecule 1 (VCAM-1); assay type: cell-based

T1 sequence (P05556 whole entry): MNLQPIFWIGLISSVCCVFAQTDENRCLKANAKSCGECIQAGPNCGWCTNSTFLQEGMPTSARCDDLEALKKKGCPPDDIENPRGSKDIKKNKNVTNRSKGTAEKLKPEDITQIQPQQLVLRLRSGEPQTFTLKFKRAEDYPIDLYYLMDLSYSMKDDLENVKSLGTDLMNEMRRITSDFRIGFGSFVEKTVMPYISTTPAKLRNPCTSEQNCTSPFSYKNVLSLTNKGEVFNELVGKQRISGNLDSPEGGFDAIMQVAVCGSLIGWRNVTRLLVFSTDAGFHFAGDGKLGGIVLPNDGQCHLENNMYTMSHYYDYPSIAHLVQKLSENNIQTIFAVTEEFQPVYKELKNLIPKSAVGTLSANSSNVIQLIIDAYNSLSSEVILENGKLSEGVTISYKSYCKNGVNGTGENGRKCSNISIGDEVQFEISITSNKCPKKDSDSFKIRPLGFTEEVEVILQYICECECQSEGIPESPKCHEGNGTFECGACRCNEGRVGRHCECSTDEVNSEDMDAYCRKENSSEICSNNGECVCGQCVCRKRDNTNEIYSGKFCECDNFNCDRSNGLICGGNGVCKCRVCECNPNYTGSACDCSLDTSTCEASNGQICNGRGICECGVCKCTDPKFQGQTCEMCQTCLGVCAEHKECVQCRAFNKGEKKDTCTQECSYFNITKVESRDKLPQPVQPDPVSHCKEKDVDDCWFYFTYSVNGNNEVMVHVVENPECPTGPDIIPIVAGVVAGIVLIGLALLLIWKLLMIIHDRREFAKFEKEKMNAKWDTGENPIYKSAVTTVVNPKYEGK
T1 sequence (P13612 whole entry): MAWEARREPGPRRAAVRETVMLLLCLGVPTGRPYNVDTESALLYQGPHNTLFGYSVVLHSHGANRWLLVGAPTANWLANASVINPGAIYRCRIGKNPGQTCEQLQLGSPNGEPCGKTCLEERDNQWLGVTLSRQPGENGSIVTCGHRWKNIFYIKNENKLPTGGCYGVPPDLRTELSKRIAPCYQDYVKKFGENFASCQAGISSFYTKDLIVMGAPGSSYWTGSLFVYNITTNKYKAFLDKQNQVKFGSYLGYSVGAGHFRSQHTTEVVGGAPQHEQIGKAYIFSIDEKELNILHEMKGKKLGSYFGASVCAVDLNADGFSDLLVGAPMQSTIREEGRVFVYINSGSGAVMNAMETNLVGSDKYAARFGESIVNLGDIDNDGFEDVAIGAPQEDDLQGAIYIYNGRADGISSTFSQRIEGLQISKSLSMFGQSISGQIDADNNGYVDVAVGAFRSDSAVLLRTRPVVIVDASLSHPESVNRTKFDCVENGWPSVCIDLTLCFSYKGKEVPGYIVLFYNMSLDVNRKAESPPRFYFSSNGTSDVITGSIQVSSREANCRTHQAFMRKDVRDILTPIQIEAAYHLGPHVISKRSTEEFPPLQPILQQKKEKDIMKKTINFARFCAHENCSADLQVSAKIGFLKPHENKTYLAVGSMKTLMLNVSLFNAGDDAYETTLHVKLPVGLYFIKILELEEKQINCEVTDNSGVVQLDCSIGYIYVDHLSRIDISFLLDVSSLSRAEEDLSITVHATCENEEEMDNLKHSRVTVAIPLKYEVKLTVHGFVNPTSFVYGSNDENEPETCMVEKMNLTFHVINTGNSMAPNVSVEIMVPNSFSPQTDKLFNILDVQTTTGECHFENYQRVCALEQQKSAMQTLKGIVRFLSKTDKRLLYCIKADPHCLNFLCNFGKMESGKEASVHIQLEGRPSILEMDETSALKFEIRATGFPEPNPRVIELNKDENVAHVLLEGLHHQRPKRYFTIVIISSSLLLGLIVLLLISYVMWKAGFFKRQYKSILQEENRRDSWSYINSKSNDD

| SMILES | IC50 [1] | IC50 [3] | IC50 [4] | IC50 [2] |
| --- | --- | --- | --- | --- |
| NC(=O)NCCC1(C(=O)N[C@@H](Cc2ccc(NC(=O)c3c(Cl)cccc3Cl)cc2)C(=O)O)CCCC1 | 0.46 nM |  |  |  |
| CSCCCCC1(C(=O)N[C@@H](Cc2ccc(NC(=O)c3c(Cl)cccc3Cl)cc2)C(=O)O)CCCC1 |  |  |  | 1.1 nM |
| N#CCCCCC1(C(=O)N[C@@H](Cc2ccc(NC(=O)c3c(Cl)cccc3Cl)cc2)C(=O)O)CCCC1 | 0.52 nM |  |  |  |
| Cn1nnnc1-c1cccc(CC2(C(=O)N[C@@H](Cc3ccc(NC(=O)c4c(Cl)cccc4Cl)cc3)C(=O)O)CCCC2)c1 | 0.4 nM | 100 nM |  |  |
| Cn1nnnc1-c1ccc(CC2(C(=O)N[C@@H](Cc3ccc(NC(=O)c4c(Cl)cccc4Cl)cc3)C(=O)O)CCCCC2)cc1 | 1.3 nM | 61 nM |  |  |
| COCCCCC1(C(=O)N[C@@H](Cc2ccc(NC(=O)c3c(Cl)cccc3Cl)cc2)C(=O)O)CCCC1 |  | 29 nM |  |  |
| O=C(Nc1ccc(C[C@H](NC(=O)C2(c3ccccc3)CCCC2)C(=O)O)cc1)c1c(Cl)cccc1Cl | 1.7 nM |  |  |  |
| Cn1nnnc1-c1ccc(CC2(C(=O)N[C@@H](Cc3ccc(NC(=O)c4c(Cl)cccc4Cl)cc3)C(=O)O)CCCC2)cc1 |  | 19 nM |  |  |
| O=C(Nc1ccc(C[C@H](NC(=O)C2(Cc3ccccc3Cl)CCCC2)C(=O)O)cc1)c1c(Cl)cccc1Cl |  | 350 nM |  |  |
| C=CCCC1(C(=O)N[C@@H](Cc2ccc(NC(=O)c3c(Cl)cccc3Cl)cc2)C(=O)O)CCCC1 |  | 64 nM |  |  |
| [N-]=[N+]=NCCC1(C(=O)N[C@@H](Cc2ccc(NC(=O)c3c(Cl)cccc3Cl)cc2)C(=O)O)CCCC1 | 0.53 nM |  |  |  |
| C[S+]([O-])CCC1(C(=O)N[C@@H](Cc2ccc(NC(=O)c3c(Cl)cccc3Cl)cc2)C(=O)O)CCCC1 (some centres undefined) |  |  |  | 0.21 nM |
| COc1cccc(CC2(C(=O)N[C@@H](Cc3ccc(NC(=O)c4c(Cl)cccc4Cl)cc3)C(=O)O)CCCC2)c1 |  | 170 nM |  |  |
| N#CCC1(C(=O)N[C@@H](Cc2ccc(NC(=O)c3c(Cl)cccc3Cl)cc2)C(=O)O)CCCC1 | 1.1 nM |  |  |  |
| CS(=O)(=O)CCC1(C(=O)N[C@@H](Cc2ccc(NC(=O)c3c(Cl)cccc3Cl)cc2)C(=O)O)CCCC1 |  |  |  | 0.8 nM |
| O=C(NCCC1(C(=O)N[C@@H](Cc2ccc(NC(=O)c3c(Cl)cccc3Cl)cc2)C(=O)O)CCCC1)Nc1ccccc1 | 5.8 nM | 914 nM |  |  |

Now from value to molecule, other results behind:

| IC50 [1] | IC50 [3] | IC50 [4] | SMILES | IC50 [2] |
| --- | --- | --- | --- | --- |
|  | 12 nM |  | COCCC1(C(=O)N[C@@H](Cc2ccc(NC(=O)c3c(Cl)cccc3Cl)cc2)C(=O)O)CCCC1 |  |
| 0.6 nM | 37 nM |  | COc1ccc(CC2(C(=O)N[C@@H](Cc3ccc(NC(=O)c4c(Cl)cccc4Cl)cc3)C(=O)O)CCCC2)cc1 |  |
| 6.6 nM | 340 nM |  | O=C(Nc1ccc(C[C@H](NC(=O)C2(Cc3ccccc3)CCCC2)C(=O)O)cc1)c1c(Cl)cccc1Cl |  |
|  |  | 8 nM | CS(=O)(=O)CCCCC1(C(=O)N[C@@H](Cc2ccc(NC(=O)c3c(Cl)cccc3Cl)cc2)C(=O)O)CCCC1 | 0.15 nM |
| 1 nM | 134 nM |  | COCC1(C(=O)N[C@@H](Cc2ccc(NC(=O)c3c(Cl)cccc3Cl)cc2)C(=O)O)CCCC1 |  |
| 0.1 nM | 11 nM |  | CNC(=O)NCCC1(C(=O)N[C@@H](Cc2ccc(NC(=O)c3c(Cl)cccc3Cl)cc2)C(=O)O)CCCC1 |  |
|  |  | 528 nM | CS(=O)(=O)CCCC1(C(=O)N[C@@H](Cc2ccc(NC(=O)c3c(Cl)cccc3Cl)cc2)C(=O)O)CCCC1 | 1.8 nM |
|  |  | 6 nM | CS(=O)(=O)CCCCC1(C(=O)N[C@@H](Cc2ccc(NC(=O)c3c(Cl)cccc3Cl)cc2)C(=O)O)CCC1 | 0.1 nM |
| 1.64 nM | 142 nM |  | [N-]=[N+]=NCCCCC1(C(=O)N[C@@H](Cc2ccc(NC(=O)c3c(Cl)cccc3Cl)cc2)C(=O)O)CCCC1 |  |
| 0.61 nM | 17 nM |  | COCCC1(C(=O)N[C@@H](Cc2ccc(NC(=O)c3c(Cl)cccc3Cl)cc2)C(=O)O)CCC1 |  |
| 7.8 nM | 350 nM |  | CC(=O)CCCC1(C(=O)N[C@@H](Cc2ccc(NC(=O)c3c(Cl)cccc3Cl)cc2)C(=O)O)CCCC1 |  |
| 3.4 nM | 89 nM |  | CN(C)CCC1(C(=O)N[C@@H](Cc2ccc(NC(=O)c3c(Cl)cccc3Cl)cc2)C(=O)O)CCCC1 |  |
| 0.8 nM | 95 nM |  | COc1ccc(CC2(C(=O)N[C@@H](Cc3ccc(NC(=O)c4c(Cl)cccc4Cl)cc3)C(=O)O)CCCC2)cc1OC |  |

Reference: ChEMBL document CHEMBL1135311, “N-Cycloalkanoyl-L-phenylalanine derivatives as VCAM/VLA-4 antagonists” (Bioorg Med Chem Lett, 2002)
